Source: patent US10231954B2, “Neurodegenerative therapies” (LYTIX BIOPHARMA AS, priority 2014, dated 2019)

Experiments:
ERK1 = ERK1 (Homo sapiens, UniProt P27361); assay: Kinase profiling ERK1; format: biochemical; conditions: 100 micromolar inhibitor concentration, 100 is no change; for remaining activity at 100 µM: read-out: residual kinase activity, ERK1
Source text: (§1) Any value less that 25 is considered to be highly significant inhibition.

p38a MAPK = p38a MAPK (Homo sapiens, UniProt Q16539); assay: Kinase profiling p38a MAPK; format: biochemical; conditions: 100 micromolar inhibitor concentration, 100 is no change; for remaining activity at 100 µM: read-out: residual kinase activity, p38a MAPK
Sequence of p38a MAPK (Q16539 whole entry): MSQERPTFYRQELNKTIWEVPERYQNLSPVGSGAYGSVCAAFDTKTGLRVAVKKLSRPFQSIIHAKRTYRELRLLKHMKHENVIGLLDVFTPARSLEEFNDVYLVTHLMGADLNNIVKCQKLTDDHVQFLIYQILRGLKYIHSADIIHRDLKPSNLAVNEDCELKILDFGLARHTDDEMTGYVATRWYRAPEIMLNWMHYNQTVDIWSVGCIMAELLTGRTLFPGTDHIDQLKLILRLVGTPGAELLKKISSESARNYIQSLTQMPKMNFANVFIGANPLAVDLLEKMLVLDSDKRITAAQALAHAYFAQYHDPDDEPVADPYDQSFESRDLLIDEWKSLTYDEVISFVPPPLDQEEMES
Source text: as §1

p38g MAPK = target: T1, p38g MAPK (Homo sapiens, UniProt P53778); assay: Kinase profiling p38g MAPK; format: biochemical; conditions: 100 micromolar inhibitor concentration, 100 is no change; for remaining activity at 100 µM: read-out: residual kinase activity, p38g MAPK
T1 sequence (P53778 1-367): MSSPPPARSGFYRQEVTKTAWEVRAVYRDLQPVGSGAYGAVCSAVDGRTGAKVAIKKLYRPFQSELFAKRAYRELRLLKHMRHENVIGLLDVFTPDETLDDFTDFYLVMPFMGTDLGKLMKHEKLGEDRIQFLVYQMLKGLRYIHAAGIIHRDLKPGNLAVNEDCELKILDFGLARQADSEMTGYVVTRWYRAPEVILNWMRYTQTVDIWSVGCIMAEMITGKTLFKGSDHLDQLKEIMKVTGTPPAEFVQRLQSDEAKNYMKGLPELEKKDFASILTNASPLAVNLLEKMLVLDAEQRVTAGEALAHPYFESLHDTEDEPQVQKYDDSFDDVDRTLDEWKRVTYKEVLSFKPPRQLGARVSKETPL
Source text: as §1

SGK1 = target: T2, SGK1 (Homo sapiens, UniProt O00141); assay: Kinase profiling SGK1; format: biochemical; conditions: 100 micromolar inhibitor concentration, 100 is no change; for remaining activity at 100 µM: read-out: residual kinase activity, SGK1
T2 sequence (O00141 1-431): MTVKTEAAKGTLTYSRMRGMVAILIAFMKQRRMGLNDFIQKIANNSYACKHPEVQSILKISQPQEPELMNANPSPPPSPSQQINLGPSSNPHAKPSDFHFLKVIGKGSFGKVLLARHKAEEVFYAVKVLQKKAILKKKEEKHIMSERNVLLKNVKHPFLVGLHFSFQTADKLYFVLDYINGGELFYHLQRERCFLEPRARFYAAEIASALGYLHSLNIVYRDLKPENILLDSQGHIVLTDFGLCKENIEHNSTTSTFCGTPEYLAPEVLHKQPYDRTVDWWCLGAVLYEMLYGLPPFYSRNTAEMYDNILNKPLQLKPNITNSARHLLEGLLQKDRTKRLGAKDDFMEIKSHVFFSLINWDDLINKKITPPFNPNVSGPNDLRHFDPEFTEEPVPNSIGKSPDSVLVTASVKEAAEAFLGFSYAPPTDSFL
Source text: as §1

PKCγ = PKCγ (Homo sapiens, UniProt P05129); assay: Kinase profiling PKCγ; format: biochemical; conditions: 100 micromolar inhibitor concentration, 100 is no change; for remaining activity at 100 µM: read-out: residual kinase activity, PKCγ
Source text: as §1

STK33 = STK33 (Homo sapiens, UniProt Q9BYT3); assay: Kinase profiling STK33; format: biochemical; conditions: 100 micromolar inhibitor concentration, 100 is no change; for remaining activity at 100 µM: read-out: residual kinase activity, STK33
Sequence of STK33 (Q9BYT3 whole entry, species assumed): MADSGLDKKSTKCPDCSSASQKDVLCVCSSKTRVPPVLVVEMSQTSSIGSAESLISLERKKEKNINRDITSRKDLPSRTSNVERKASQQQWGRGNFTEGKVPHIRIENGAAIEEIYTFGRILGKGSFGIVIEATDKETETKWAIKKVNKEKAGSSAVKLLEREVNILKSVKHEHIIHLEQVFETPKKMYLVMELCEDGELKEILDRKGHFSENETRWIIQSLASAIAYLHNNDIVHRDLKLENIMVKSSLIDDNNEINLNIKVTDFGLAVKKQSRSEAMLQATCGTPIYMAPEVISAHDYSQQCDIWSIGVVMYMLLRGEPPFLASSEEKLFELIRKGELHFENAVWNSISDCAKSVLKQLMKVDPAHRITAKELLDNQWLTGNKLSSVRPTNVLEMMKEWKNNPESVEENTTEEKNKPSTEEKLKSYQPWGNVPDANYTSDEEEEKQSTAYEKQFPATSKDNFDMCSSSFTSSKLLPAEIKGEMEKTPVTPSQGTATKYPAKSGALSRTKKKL
Source text: as §1

CAMKKb = CAMKKb (Homo sapiens, UniProt Q96RR4); assay: Kinase profiling CAMKKb; format: biochemical; conditions: 100 micromolar inhibitor concentration, 100 is no change; for remaining activity at 100 µM: read-out: residual kinase activity, CAMKKb
Sequence of CAMKKb (Q96RR4 whole entry, species assumed): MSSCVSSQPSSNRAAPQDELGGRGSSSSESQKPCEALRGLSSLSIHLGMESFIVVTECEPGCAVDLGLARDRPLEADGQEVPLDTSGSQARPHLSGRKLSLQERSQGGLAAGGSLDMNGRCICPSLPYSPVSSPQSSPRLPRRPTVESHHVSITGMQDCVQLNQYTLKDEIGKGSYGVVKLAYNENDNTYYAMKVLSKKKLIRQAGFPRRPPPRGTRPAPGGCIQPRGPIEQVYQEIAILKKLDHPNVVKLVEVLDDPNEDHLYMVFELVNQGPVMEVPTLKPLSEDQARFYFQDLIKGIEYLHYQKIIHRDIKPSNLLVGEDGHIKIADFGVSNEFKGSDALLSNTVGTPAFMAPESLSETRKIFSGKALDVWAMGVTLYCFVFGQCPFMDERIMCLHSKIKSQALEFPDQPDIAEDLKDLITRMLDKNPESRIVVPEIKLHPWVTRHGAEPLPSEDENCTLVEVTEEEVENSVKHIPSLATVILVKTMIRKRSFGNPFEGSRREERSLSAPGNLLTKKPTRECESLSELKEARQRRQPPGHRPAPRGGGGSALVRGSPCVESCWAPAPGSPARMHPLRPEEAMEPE
Source text: as §1

PLK1 = PLK1 (Homo sapiens, UniProt P53350); assay: Kinase profiling PLK1; format: biochemical; conditions: 100 micromolar inhibitor concentration, 100 is no change; for remaining activity at 100 µM: read-out: residual kinase activity, PLK1
Sequence of PLK1 (P53350 whole entry, species assumed): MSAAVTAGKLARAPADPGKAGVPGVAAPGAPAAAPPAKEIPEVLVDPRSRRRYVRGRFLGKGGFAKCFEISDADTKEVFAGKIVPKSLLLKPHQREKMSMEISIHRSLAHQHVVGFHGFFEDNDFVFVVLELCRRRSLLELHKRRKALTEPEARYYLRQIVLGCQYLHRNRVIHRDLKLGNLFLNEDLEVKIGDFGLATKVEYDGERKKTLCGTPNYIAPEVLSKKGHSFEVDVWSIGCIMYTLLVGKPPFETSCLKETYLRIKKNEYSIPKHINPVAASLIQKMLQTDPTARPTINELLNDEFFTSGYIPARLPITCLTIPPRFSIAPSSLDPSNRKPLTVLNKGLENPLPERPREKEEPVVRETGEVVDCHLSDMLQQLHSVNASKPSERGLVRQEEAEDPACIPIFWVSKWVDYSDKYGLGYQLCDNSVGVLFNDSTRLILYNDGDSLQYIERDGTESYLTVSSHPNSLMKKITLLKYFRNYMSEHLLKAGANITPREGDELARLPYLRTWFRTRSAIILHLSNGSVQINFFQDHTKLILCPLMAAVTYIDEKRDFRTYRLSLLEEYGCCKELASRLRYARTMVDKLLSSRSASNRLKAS
Source text: as §1

LKB1 = target: T3, LKB1 (Homo sapiens, UniProt Q15831); assay: Kinase profiling LKB1; format: biochemical; conditions: 100 micromolar inhibitor concentration, 100 is no change; for remaining activity at 100 µM: read-out: residual kinase activity, LKB1
T3 sequence (Q15831 1-433): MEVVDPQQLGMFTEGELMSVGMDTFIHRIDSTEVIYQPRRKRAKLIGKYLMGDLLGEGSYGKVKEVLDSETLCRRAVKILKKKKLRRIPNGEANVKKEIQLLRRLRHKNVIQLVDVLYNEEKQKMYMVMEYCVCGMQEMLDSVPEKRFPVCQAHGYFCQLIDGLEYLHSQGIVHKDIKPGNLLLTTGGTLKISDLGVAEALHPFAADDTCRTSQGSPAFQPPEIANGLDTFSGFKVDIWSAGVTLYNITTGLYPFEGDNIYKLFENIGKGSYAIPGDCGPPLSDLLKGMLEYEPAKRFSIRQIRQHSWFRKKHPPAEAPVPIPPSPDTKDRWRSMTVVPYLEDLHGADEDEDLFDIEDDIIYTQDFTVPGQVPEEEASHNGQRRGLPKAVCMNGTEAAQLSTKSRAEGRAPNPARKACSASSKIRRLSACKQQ
T3 sequence (Q7RTN6 1-431 partner): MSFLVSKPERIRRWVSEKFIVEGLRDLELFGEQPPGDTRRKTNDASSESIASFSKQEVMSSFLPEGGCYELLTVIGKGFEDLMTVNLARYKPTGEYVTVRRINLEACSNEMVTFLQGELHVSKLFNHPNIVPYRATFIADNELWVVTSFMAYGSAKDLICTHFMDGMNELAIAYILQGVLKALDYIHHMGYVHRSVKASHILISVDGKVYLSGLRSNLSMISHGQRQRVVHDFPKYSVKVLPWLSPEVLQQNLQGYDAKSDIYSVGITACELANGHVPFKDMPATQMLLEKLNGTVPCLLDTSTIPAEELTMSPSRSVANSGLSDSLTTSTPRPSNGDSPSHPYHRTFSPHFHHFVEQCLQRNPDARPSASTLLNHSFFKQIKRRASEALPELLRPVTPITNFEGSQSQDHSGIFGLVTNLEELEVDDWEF
T3 sequence (Q9Y376 1-341 partner): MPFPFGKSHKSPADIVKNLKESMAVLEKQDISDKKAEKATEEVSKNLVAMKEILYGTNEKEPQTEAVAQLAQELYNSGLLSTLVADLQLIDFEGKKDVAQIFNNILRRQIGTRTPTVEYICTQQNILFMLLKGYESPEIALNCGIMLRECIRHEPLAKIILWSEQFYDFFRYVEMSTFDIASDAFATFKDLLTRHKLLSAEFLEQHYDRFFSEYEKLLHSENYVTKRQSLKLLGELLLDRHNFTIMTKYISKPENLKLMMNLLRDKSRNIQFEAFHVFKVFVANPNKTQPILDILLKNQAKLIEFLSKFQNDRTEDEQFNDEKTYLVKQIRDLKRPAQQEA
Source text: as §1

AMPK (hum) = assay: Kinase profiling AMPK (hum); format: biochemical, human; conditions: 100 micromolar inhibitor concentration; 100 is no change
Source text: as §1

BTK = BTK (Homo sapiens, UniProt Q06187); assay: Kinase profiling BTK; format: biochemical; conditions: 100 micromolar inhibitor concentration, 100 is no change; for remaining activity at 100 µM: read-out: residual kinase activity, BTK
Sequence of BTK (Q06187 whole entry, species assumed): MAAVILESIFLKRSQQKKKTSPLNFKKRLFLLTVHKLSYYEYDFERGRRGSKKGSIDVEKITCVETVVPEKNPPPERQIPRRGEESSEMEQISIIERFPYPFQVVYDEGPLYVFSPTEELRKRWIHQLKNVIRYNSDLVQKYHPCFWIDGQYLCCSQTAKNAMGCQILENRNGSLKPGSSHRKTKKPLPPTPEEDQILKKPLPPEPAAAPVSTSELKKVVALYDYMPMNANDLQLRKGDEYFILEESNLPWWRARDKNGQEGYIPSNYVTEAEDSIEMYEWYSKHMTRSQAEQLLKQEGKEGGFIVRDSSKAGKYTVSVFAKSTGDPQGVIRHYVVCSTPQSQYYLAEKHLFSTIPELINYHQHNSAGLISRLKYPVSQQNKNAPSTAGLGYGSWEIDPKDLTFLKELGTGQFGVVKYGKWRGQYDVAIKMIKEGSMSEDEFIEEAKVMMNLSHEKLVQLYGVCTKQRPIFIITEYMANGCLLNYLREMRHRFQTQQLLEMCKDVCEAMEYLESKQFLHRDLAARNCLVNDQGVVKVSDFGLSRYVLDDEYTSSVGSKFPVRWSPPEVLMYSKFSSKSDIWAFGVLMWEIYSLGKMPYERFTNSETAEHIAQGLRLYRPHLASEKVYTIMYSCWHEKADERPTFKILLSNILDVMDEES
Source text: as §1

VEG-FR = assay: Kinase profiling VEG-FR; format: biochemical; conditions: 100 micromolar inhibitor concentration; 100 is no change
Source text: as §1

Sequence of ERK1 (P27361 whole entry, species assumed): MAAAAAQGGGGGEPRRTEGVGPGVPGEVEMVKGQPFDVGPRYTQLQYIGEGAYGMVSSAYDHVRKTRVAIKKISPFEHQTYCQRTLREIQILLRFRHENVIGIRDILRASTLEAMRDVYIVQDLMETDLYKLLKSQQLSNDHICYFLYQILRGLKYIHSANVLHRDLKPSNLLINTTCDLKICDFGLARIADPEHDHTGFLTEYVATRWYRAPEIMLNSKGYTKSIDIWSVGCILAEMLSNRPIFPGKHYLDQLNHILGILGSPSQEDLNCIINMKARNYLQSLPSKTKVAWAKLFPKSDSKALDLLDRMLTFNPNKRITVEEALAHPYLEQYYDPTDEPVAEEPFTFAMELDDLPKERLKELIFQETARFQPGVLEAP

| Compound | residual kinase activity, ERK1 (ERK1) | residual kinase activity, p38a MAPK (p38a MAPK) | residual kinase activity, p38g MAPK (p38g MAPK) | residual kinase activity, SGK1 (SGK1) | residual kinase activity, PKCγ (PKCγ) | residual kinase activity, STK33 (STK33) | residual kinase activity, CAMKKb (CAMKKb) | residual kinase activity, PLK1 (PLK1) | residual kinase activity, AMPK (hum) (AMPK (hum)) | residual kinase activity, VEG-FR (VEG-FR) | remaining activity at 100 µM (ERK1) [%] | remaining activity at 100 µM (p38a MAPK) [%] | remaining activity at 100 µM (p38g MAPK) [%] | remaining activity at 100 µM (SGK1) [%] | remaining activity at 100 µM (PKCγ) [%] | remaining activity at 100 µM (STK33) [%] | remaining activity at 100 µM (CAMKKb) [%] | remaining activity at 100 µM (PLK1) [%] | remaining activity at 100 µM (LKB1) [%] | remaining activity at 100 µM (BTK) [%] | further results |
| --- | --- | --- | --- | --- | --- | --- | --- | --- | --- | --- | --- | --- | --- | --- | --- | --- | --- | --- | --- | --- | --- |
| O=C(Nc1nc2ccc(O)cc2s1)c1ccccc1 [Compound 03-60] | 67 | 74 | 58 | 41 | 83 | 38 | 37 | 74 | 27 | 5 |  |  |  |  |  |  |  |  |  |  | residual kinase activity, LKB1 (LKB1): 68; residual kinase activity, BTK (BTK): 59 |
| CC(=O)Nc1nc2ccccc2s1 [Compound 03-32] | 83 | 91 | 109 | 92 | 94 | 104 | 101 | 62 | 86 | 66 |  |  |  |  |  |  |  |  |  |  | residual kinase activity, LKB1 (LKB1): 97; residual kinase activity, BTK (BTK): 100 |
| CC(=O)Nc1nc2ccc(C#N)cc2s1 [Compound 01-94] |  |  |  |  |  |  |  |  | 40 | 11 | 97 | 102 | 82 | 40 | 83 | 35 | 35 | 108 | 35 | 98 |  |
| O=C(Nc1nc2cc(O)ccc2s1)c1ccncc1 [Compound 03-11] | 88 | 106 | 93 | 84 | 101 | 77 | 88 | 76 | 98 | 58 |  |  |  |  |  |  |  |  |  |  | residual kinase activity, LKB1 (LKB1): 87; residual kinase activity, BTK (BTK): 107 |
| COc1ccc2sc(NC(C)=O)nc2c1 [Compound 03-21] |  |  |  |  |  |  |  |  | 81 | 71 | 87 | 96 | 56 | 82 | 103 | 81 | 87 | 90 | 93 | 102 |  |
| CC(=O)Nc1nc2cc(C(F)(F)F)ccc2s1 [Compound 03-73] |  |  |  |  |  |  |  |  | 62 | 33 | 83 | 92 | 93 | 77 | 106 | 86 | 65 | 91 | 98 | 93 |  |
| CC(=O)Nc1nc2cc(F)ccc2s1 [Compound 03-77] |  |  |  |  |  |  |  |  | 80 | 48 | 90 | 88 | 77 | 66 | 102 | 70 | 74 | 78 | 85 | 105 |  |
| CC(=O)Nc1nc2ccc(C(F)(F)F)cc2s1 [Compound 01-90] |  |  |  |  |  |  |  |  | 74 | 8 | 100 | 106 | 101 | 69 | 53 | 46 | 29 | 80 | 79 | 73 |  |
| O=C(Nc1nc2ccc(O)cc2s1)c1cccnc1 [Compound 08-44] | 81 | 108 | 77 | 51 | 73 | 57 | 59 | 63 | 55 | 21 |  |  |  |  |  |  |  |  |  |  | residual kinase activity, LKB1 (LKB1): 45; residual kinase activity, BTK (BTK): 54 |
